The compounds below were run against human RORgammaT-Ligand Binding Domain (LBD) (Homo sapiens (Human), UniProt P51449) (assay: RORγ-Ligand Binding Domain TR-FRET assay (co-activator peptide SRC1_2 recruitment)). Conditions: HIS-tagged RORγ-LBD 3 nM, biotinylated SRC1 LXXLL peptide 100 nM, incubated overnight at 4° C., 665 nm/615 nm signal quotient; read-out: Fret IC50.
Assay type: biochemical
Description: Activation of RORgammaT activity can be measured using, e.g., biochemical TR-FRET assay. In such an assay, interaction of cofactor-derived peptides with human RORgammaT-Ligand Binding Domain (LBD) can be measured.
To identify novel antagonists of RORgammaT, an assay was developed which employs the interaction of RORgammaT with its co-activator peptide SRC1_2. […] The RORγ-Ligand Binding Domain TR-FRET Assay was run according to the following protocol.
HIS-tagged RORγ-LBD protein was expressed in SF9 cells using a baculovirus expression system. The RORγ-LBD protein was purified by glutathione sepharose chromatography. Separately, SF9 cells not expressing any recombinant protein were lysed and the lysate was added to the purified RORγ-LBD at 0.25 μl lysate (from 10,000 SF9 cells)/nM purified protein. The mixture was then diluted in assay buffer (50 mM Tris pH 7.0, 50 mM KCl, 1 mM EDTA, 0.1 mM DTT) to obtain RORγ-LBD final concentration of 3 nM in 384-well assay plate.
Compounds to be tested were injected to the assay plate using Acoustic Droplet Ejection technology by Echo 550 liquid handler (Labcyte, Calif.).

human RORgammaT-Ligand Binding Domain (LBD), sequence (P51449 269-508): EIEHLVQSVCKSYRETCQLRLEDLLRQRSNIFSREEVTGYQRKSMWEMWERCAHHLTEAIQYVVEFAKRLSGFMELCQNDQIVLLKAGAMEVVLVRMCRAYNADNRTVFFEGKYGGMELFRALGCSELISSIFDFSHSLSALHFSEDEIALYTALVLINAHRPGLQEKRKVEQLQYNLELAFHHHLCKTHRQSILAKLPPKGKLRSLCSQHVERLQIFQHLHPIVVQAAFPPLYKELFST

Structure (SMILES)	IC50 [nM]
C[C@@H]1CN(C(=O)c2ccc3c(C4=CCC(C(=O)O)CC4)nn(C(=O)c4c(Cl)cccc4C(F)(F)F)c3c2)C[C@H](C)O1 (stereo partly drawn) [Example 4M, 4-(1-(2-chloro-6-(trifluoromethyl)benzoyl)-6-((2R,6S)-2,6-dimethylmorpholine-4-carbonyl)-1H-indazol-3-yl)cyclohex-3-enecarboxylic acid]	21
CN1CCN(C(=O)c2ccc3c(C4=CCC(C(=O)O)CC4)nn(C(=O)c4c(Cl)cccc4C(F)(F)F)c3c2)CC1=O (centres unmarked) [Example 4N, 4-(1-(2-chloro-6-(trifluoromethyl)benzoyl)-6-(4-methyl-3-oxopiperazine-1-carbonyl)-1H-indazol-3-yl)cyclohex-3-enecarboxylic acid]	3
C[C@H]1COCCN1C(=O)c1ccc2c(C3=CCC(C(=O)O)CC3)nn(C(=O)c3c(Cl)cccc3C(F)(F)F)c2c1 (stereo partly drawn) [Example 4O, 4-(1-(2-chloro-6-(trifluoromethyl)benzoyl)-6-((S)-3-methylmorpholinc-4-carbonyl)-1H-indazol-3-yl)cyclohex-3-enecarboxylic acid]	308
CN(C(=O)c1ccc2c(C3=CCC(C(=O)O)CC3)nn(C(=O)c3c(Cl)cccc3C(F)(F)F)c2c1)C1CCOCC1 (centres unmarked) [Example 4P, 4-(1-(2-chloro-6-(trifluoromethyl)benzoyl)-6-(methyl(tetrahydro-2H-pyran-4-yl)carbamoyl)-1H-indazol-3-yl)cyclohex-3-enecarboxylic acid]	41
C[C@@H]1COCCN1C(=O)c1ccc2c(C3=CCC(C(=O)O)CC3)nn(C(=O)c3c(Cl)cccc3C(F)(F)F)c2c1 (stereo partly drawn) [Example 4Q, 4-(1-(2-chloro-6-(trifluoromethyl)benzoyl)-6-((R)-3-methylmorpholine-4-carbonyl)-1H-indazol-3-yl)cyclohex-3-enecarboxylic acid]	380
C[C@H]1CN(C(=O)c2ccc3c(C4=CCC(C(=O)O)CC4)nn(C(=O)c4c(Cl)cccc4C(F)(F)F)c3c2)CCO1 (stereo partly drawn) [Example 4R, 4-(1-(2-chloro-6-(trifluoromethyl)benzoyl)-6-((S)-2-methylmorpholine-4-carbonyl)-1H-indazol-3-yl)cyclohex-3-enecarboxylic acid]	21
CN(CCO)C(=O)c1ccc2c(C3=CCC(C(=O)O)CC3)nn(C(=O)c3c(Cl)cccc3C(F)(F)F)c2c1 (centres unmarked) [Example 4S, 4-(1-(2-chloro-6-(trifluoromethyl)benzoyl)-6-((2-hydroxyethyl)(methyl)carbamoyl)-1H-indazol-3-yl)cyclohex-3-enecarboxylic acid]	40
CC(C)NC(=O)c1ccc2c(C3=CCC(C(=O)O)CC3)nn(C(=O)c3c(Cl)cccc3C(F)(F)F)c2c1 (centres unmarked) [Example 4T, 4-(1-(2-chloro-6-(trifluoromethyl)benzoyl)-6-(isopropylcarbamoyl)-1H-indazol-3-yl)cyclohex-3-enecarboxylic acid]	1120
CC(C)N(C)C(=O)c1ccc2c(C3=CCC(C(=O)O)CC3)nn(C(=O)c3c(Cl)cccc3C(F)(F)F)c2c1 (centres unmarked) [Example 4U, 4-(1-(2-chloro-6-(trifluoromethyl)benzoyl)-6-(isopropyl(methyl)carbamoyl)-1H-indazol-3-yl)cyclohex-3-enecarboxylic acid]	164
COCCN(C)C(=O)c1ccc2c(C3=CCC(C(=O)O)CC3)nn(C(=O)c3c(Cl)cccc3C(F)(F)F)c2c1 (centres unmarked) [Example 4V, 4-(1-(2-chloro-6-(trifluoromethyl)benzoyl)-6-((2-methoxyethyl)(methyl)carbamoyl)-1H-indazol-3-yl)cyclohex-3-enecarboxylic acid]	31
O=C(O)C1CC=C(c2nn(C(=O)c3c(Cl)cccc3C(F)(F)F)c3cc(C(=O)N4CC(O)C4)ccc23)CC1 (centres unmarked) [Example 4W, 4-(1-(2-chloro-6-(trifluoromethyl)benzoyl)-6-(3-hydroxyazetidine-1-carbonyl)-1H-indazol-3-yl)cyclohex-3-enecarboxylic acid]	3
